# From ChEMBL document CHEMBL1201862, “PubChem BioAssay data set” (2004)
# The source made the active and inactive calls.
# Legend:
# [1] = bead-based luminescence quenchers, dual-tagged ARNT – biochemical, AlphaScreen, cherry-pick, artefact control for ARNT-TACC3 interaction inhibitor project, dose response (AID 651705); type: functional;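 also: AlphaScreen bead proximity signal that flags compounds interfering with the detection technology; potency reflects signal decrease which marks the compound as an assay artifact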
# Interleukin-8 [2] = target: T1, Interleukin-8 (Homo sapiens, UniProt P10145); experiment: Dose Response confirmation of uHTS small molecule hits for cystic fibrosis induced NFkb Inhibitors in a TNFa-induced IL8 counterscreen.; type: functional; conditions: read-out: IC50_Mean
# Interleukin-8 [3] = target: T1, Interleukin-8; experiment: Dose Response confirmation of uHTS small molecule hits for cystic fibrosis induced NFkb Inhibitors in a PAF-induced IL8 counterscreen.; type: functional; conditions: read-out: IC50_Mean
# [4] = NIH-3T3 fibroblast cytotoxicity, dose response, cytotoxicity control, cell-based, fluorescence, Alamar Blue, secondary assay (AID 2327); type: functional;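 also: NIH-3T3 mouse fibroblasts cultured with fluconazole at 8 µg/mL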
# [5] = fluconazole-exposed Candida albicans growth modulators – fluorescence, retest, confirmation (AID 2467); type: functional, cell-based
# [6] = THP-1 cell cytotoxicity, dose response, cytotoxicity control for non-replicating M. tuberculosis project (AID 489025); type: functional
# [7] = target: T2, Ubiquitin-conjugating enzyme E2 N (Homo sapiens, UniProt P61088); type: functional;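 also: Dose-response confirmation in a TR-FRET assay detecting UBC13-driven polyubiquitin chain formation, inhibition measured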
# T2 sequence (P61088 whole entry): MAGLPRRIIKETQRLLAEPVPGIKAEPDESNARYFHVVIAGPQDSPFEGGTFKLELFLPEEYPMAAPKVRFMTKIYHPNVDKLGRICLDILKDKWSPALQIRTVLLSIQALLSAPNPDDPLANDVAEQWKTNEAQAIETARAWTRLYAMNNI
# cells = type: functional
# INS1 = experiment: INS-1E survival protection against cytokine death – cell-based, luminescence, retest, dose response (AID 449756); type: functional; conditions: Rattus norvegicus;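 also: cell death triggered by IL-1 beta plus TNF-alpha plus IFN-gamma mixture; protective hits raise ATP signal compared with cytokine alone wells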
# [8] = target: T3, Multidrug resistance protein CDR2 (Candida albicans (strain SC5314 / ATCC MYA-2876) (Yeast), UniProt P78595); experiment: blockers of Nile Red efflux by Candida CDR2 – S. cerevisiae AD1-8u, singleplex, Cherry Pick2 set, dose response (AID 623994); type: functional; conditions: read-out: EC50_MICROM
# T3 sequence (P78595 whole entry): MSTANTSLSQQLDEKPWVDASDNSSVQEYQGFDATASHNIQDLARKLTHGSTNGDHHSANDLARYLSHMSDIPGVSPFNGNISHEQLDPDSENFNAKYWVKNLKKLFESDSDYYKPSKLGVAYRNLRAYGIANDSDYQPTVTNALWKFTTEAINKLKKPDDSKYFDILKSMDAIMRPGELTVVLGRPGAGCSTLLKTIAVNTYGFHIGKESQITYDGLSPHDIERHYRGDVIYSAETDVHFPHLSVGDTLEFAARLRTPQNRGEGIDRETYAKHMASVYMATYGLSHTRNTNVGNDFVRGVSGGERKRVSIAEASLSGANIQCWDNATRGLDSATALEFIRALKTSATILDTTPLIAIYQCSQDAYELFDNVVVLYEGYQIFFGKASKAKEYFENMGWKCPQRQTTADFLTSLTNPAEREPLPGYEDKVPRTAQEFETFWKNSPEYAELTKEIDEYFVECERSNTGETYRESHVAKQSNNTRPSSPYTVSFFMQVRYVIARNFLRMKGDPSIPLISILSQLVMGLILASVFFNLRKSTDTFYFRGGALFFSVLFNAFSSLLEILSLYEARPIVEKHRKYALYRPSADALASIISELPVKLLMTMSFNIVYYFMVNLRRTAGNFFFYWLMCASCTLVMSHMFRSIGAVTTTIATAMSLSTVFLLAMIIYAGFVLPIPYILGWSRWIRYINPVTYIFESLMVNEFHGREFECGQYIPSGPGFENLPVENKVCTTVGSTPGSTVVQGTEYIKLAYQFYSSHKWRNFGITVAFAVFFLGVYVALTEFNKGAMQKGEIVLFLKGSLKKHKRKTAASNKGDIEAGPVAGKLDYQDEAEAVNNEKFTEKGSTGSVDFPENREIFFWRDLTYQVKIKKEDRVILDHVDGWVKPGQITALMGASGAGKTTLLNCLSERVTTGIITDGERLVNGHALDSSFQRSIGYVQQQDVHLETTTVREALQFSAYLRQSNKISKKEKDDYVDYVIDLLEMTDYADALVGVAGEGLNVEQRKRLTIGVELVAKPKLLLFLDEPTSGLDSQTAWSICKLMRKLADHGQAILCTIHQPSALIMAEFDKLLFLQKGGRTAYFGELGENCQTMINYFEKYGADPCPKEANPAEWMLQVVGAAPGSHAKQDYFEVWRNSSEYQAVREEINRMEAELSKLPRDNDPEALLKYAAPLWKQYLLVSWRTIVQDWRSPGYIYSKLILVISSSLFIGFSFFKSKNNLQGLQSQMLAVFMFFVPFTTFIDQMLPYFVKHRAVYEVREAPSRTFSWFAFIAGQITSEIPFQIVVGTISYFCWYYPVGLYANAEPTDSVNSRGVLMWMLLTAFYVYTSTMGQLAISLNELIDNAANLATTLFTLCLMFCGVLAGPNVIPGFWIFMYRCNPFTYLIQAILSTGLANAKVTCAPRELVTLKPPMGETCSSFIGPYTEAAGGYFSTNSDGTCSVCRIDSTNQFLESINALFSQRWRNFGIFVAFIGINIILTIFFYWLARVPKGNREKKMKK
# [9] = target: Adenosylmethionine-8-amino-7-oxononanoate aminotransferase (Mycobacterium tuberculosis, UniProt P9WQ81); experiment: Mycobacterium tuberculosis BioA enzyme inhibitor Measured in Biochemical System Using Plate Reader - 2163-02_Inhibitor_Dose_CherryPick_Activity.; type: functional, Mycobacterium tuberculosis UT205
# HEK293 [10] = experiment: inhibition of NOD1-driven NF-kB reporter – cell-based, luminescence, uHTS, primary screen (AID 1578); type: functional; conditions: Homo sapiens
# HEK293 [11] = experiment: cells; type: functional, cell-based; conditions: Homo sapiens
# HEK293 [12] = experiment: cells; type: functional, cell-based; conditions: Homo sapiens; remark: listed apart in the source
# [13] = target: Nucleotide-binding oligomerization domain-containing protein 2 (Homo sapiens, UniProt Q9HC29); experiment: inhibition of NOD2-driven NF-kB reporter – cell-based, luminescence, uHTS, HEK293 (AID 1566); type: functional
# HEK293 [14] = experiment: NOD2 signaling inhibitors in MDP-stimulated cells, cell-based, uHTS, luminescence (AID 2001); type: functional; conditions: Homo sapiens
# HEK293 [15] = experiment: cells; type: functional, cell-based; conditions: Homo sapiens; remark: listed apart in the source
# [16] = target: Mitochondrial peptide methionine sulfoxide reductase (Bos taurus, UniProt P54149); experiment: Absorbance-based biochemical high throughput dose response assay for activators of Methionine sulfoxide reductase A (MsrA).; type: functional
# [17] = target: T4, Sentrin-specific protease 1 (Homo sapiens, UniProt Q9P0U3); experiment: SENP1 catalytic domain blockers, concentration series – biochemical, kinetic FRET, dose response (AID 651697); type: functional; conditions: read-out: IC50_Mean
# [18] = target: T4, Sentrin-specific protease 1; experiment: Dose response confirmation of small molecule inhibitors of the catalytic domain of the SUMO protease, SENP1 in a FRET assay.; type: functional; conditions: read-out: IC50_Mean
# Protein Wnt-3a = Protein Wnt-3a (Mus musculus, UniProt P27467); experiment: antagonism of Wnt3a pathway luciferase reporter – Wnt-LIGHT cells, luminescence, selectivity assay for Gli-SUFU antagonist project, dose response (AID 651570); type: functional; conditions: read-out: IC50_Mean;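 also: Wnt-LIGHT reporter cells stimulated with conditioned medium from Wnt3a-producing cells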
# Melanocortin receptor 4 = Melanocortin receptor 4 (Homo sapiens, UniProt P32245); type: functional, cell-based;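 also: Cell-based assay with luminescence read-out, confirmatory dose-response testing for agonist activity of biased ligands at MC4R; human U2OS cells with tagged receptor and beta-arrestin; potency of agonists that increase receptor coupling to beta-arrestin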
# [19] = target: Opioid receptors; mu & delta (Homo sapiens, UniProt P41143+P35372); experiment: OPRM1-OPRD1 heterodimer agonist potency – cell-based, luminescence, counter-screen for MC4R biased agonist project, dose response (AID 602264); type: functional
# [20] = target: T5, ATP-dependent translocase ABCB1 (Homo sapiens, UniProt P08183); experiment: inhibition of BCRP-mediated JC-1 efflux – Ig-MXP3 cells, flow cytometry, set 2, dose response (AID 504566); type: functional; conditions: read-out: EC50_MICROM_;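 also: flow cytometry median green fluorescence of retained JC-1 dye; potency of efflux pump inhibition measured as rising substrate retention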
# [21] = target: T5, ATP-dependent translocase ABCB1; experiment: P-gp JC-1 efflux blockade concentration-response – Jurkat-DNR cells, flow cytometry, set 2, dose response (AID 504569); type: functional; conditions: read-out: EC50_MICROM_;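 also: potency of pump inhibitors that raise cellular JC-1 green fluorescence up to the nicardipine level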
# [22] = Fluorescence-based cell-based high throughput dose response assay for inhibitors of the interaction of nucleotide-binding oligomerization domain containing 2 (NOD2) and the receptor-interacting serine-threonine kinase 2 (RIPK2).; type: functional; conditions: Homo sapiens
# [23] = target: Photoreceptor-specific nuclear receptor (Homo sapiens, UniProt Q9Y5X4); type: functional, cell-based;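 also: CHO-S cells with Gal4-NCOR and VP16-NR2E3 two-hybrid luciferase reporter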
# Beta Lactamase = Beta Lactamase (Pseudomonas aeruginosa, UniProt Q932Y6); experiment: BLA reporter interference, concentration series – BLA reporter cells, FRET fluorescence, artefact control for NOD2-RIPK2 interaction inhibitor project, dose response (AID 651552); type: functional, cell-based
# Fatty acid synthase [24] = target: T6, Fatty acid synthase (Homo sapiens, UniProt P49327); experiment: inhibition of human FAS-TE enzyme activity – biochemical, endpoint fluorescence intensity, uHTS hits, dose response (AID 624327); type: functional;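 also: fluorescence from hydrolysis of an O-methyl fluorescein acyl ester substrate by the enzyme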
# Fatty acid synthase [25] = target: T6, Fatty acid synthase; experiment: inhibition of human FAS-TE enzyme activity – biochemical, kinetic fluorescence intensity, dose response (AID 624326); type: functional;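 also: rate of fluorescence rise from hydrolysis of a fluorogenic O-methyl fluorescein ester substrate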
# Large T antigen = Large T antigen (Simian virus 40, UniProt P03070); type: functional, Betapolyomavirus macacae;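 also: Confirmatory-stage PubChem screen for compounds that inhibit SV40 T antigen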
# [26] = target: Bifunctional protein GlmU (Mycobacterium tuberculosis, UniProt P9WMN3); experiment: Inhibitors of Mycobacterial Glucosamine-1-phosphate acetyl transferase (GlmU). Secondary screen.; set-up: species or system Mycobacterium tuberculosis H37Rv
# [27] = target: Tyrosine-protein phosphatase non-receptor type 11 (Homo sapiens, UniProt Q06124); experiment: PTPN11 enzyme inhibitors – biochemical, selectivity assay for STEP inhibitor project, dose response (AID 602367); type: functional; conditions: read-out: IC50_Mean
# [28] = target: Dual specificity protein phosphatase 3 (Homo sapiens, UniProt P51452); experiment: VHR phosphatase inhibition, dose response, selectivity assay for STEP inhibitor project, biochemical (AID 602374); type: functional; conditions: read-out: IC50_Mean
# [29] = target: T7, Tyrosine-protein phosphatase non-receptor type 22 (Homo sapiens, UniProt Q9Y2R2); experiment: lymphoid phosphatase LYP inhibitors – biochemical, selectivity assay for STEP inhibitor project, dose response (AID 624241); type: functional
# T7 sequence (Q9Y2R2 whole entry): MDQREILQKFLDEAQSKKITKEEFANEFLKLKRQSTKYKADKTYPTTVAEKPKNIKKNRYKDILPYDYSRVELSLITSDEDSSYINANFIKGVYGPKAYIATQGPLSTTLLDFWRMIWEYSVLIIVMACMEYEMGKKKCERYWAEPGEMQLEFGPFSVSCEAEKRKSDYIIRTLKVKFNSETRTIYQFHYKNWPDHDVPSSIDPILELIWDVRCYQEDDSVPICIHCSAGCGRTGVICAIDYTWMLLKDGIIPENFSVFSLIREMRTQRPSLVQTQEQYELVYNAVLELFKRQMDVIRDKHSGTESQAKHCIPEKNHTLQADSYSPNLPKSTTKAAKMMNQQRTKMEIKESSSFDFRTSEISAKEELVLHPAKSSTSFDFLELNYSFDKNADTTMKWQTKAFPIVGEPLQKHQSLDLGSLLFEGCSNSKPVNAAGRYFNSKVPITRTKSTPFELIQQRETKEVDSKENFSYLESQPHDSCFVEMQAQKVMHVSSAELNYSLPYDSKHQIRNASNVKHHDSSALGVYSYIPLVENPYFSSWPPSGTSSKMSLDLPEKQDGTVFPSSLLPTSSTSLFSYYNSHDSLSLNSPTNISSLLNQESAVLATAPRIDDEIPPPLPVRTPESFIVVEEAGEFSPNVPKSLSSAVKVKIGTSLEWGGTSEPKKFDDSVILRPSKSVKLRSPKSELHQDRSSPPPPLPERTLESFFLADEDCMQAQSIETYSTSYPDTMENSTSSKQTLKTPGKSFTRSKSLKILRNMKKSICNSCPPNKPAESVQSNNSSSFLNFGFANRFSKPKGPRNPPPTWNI
# T5 sequence (P08183 whole entry): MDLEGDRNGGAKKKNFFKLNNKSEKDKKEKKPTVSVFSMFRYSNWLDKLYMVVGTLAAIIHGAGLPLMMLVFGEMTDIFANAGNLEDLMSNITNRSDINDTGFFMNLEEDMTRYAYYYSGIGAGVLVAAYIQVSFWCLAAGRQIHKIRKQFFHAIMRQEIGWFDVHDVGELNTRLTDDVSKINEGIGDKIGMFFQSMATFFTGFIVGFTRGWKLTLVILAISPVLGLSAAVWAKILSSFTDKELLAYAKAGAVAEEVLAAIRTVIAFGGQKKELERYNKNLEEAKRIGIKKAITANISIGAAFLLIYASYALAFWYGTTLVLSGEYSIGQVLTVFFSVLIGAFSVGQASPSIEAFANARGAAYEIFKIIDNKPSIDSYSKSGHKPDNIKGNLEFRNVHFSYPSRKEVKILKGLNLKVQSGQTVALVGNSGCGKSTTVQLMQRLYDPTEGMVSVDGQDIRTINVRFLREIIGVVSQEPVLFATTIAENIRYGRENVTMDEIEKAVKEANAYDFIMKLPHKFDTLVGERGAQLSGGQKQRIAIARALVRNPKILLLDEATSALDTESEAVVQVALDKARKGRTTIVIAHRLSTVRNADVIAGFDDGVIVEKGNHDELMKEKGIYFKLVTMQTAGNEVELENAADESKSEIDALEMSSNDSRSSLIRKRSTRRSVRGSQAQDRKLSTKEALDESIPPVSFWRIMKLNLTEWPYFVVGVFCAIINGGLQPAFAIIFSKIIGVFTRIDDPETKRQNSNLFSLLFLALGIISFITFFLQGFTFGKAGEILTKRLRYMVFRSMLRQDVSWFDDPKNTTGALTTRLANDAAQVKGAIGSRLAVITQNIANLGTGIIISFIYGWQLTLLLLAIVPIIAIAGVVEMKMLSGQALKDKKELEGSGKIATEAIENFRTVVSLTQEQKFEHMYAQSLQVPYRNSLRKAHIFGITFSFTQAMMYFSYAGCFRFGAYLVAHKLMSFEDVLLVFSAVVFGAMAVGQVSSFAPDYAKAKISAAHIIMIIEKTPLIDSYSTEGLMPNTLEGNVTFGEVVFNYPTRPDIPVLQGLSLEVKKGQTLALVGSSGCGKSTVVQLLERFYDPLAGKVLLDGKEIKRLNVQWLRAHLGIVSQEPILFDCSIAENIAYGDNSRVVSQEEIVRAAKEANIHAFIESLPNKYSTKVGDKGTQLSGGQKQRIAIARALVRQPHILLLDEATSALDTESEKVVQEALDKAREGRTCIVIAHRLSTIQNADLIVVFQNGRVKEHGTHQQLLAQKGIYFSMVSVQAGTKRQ
# T6 sequence (P49327 whole entry): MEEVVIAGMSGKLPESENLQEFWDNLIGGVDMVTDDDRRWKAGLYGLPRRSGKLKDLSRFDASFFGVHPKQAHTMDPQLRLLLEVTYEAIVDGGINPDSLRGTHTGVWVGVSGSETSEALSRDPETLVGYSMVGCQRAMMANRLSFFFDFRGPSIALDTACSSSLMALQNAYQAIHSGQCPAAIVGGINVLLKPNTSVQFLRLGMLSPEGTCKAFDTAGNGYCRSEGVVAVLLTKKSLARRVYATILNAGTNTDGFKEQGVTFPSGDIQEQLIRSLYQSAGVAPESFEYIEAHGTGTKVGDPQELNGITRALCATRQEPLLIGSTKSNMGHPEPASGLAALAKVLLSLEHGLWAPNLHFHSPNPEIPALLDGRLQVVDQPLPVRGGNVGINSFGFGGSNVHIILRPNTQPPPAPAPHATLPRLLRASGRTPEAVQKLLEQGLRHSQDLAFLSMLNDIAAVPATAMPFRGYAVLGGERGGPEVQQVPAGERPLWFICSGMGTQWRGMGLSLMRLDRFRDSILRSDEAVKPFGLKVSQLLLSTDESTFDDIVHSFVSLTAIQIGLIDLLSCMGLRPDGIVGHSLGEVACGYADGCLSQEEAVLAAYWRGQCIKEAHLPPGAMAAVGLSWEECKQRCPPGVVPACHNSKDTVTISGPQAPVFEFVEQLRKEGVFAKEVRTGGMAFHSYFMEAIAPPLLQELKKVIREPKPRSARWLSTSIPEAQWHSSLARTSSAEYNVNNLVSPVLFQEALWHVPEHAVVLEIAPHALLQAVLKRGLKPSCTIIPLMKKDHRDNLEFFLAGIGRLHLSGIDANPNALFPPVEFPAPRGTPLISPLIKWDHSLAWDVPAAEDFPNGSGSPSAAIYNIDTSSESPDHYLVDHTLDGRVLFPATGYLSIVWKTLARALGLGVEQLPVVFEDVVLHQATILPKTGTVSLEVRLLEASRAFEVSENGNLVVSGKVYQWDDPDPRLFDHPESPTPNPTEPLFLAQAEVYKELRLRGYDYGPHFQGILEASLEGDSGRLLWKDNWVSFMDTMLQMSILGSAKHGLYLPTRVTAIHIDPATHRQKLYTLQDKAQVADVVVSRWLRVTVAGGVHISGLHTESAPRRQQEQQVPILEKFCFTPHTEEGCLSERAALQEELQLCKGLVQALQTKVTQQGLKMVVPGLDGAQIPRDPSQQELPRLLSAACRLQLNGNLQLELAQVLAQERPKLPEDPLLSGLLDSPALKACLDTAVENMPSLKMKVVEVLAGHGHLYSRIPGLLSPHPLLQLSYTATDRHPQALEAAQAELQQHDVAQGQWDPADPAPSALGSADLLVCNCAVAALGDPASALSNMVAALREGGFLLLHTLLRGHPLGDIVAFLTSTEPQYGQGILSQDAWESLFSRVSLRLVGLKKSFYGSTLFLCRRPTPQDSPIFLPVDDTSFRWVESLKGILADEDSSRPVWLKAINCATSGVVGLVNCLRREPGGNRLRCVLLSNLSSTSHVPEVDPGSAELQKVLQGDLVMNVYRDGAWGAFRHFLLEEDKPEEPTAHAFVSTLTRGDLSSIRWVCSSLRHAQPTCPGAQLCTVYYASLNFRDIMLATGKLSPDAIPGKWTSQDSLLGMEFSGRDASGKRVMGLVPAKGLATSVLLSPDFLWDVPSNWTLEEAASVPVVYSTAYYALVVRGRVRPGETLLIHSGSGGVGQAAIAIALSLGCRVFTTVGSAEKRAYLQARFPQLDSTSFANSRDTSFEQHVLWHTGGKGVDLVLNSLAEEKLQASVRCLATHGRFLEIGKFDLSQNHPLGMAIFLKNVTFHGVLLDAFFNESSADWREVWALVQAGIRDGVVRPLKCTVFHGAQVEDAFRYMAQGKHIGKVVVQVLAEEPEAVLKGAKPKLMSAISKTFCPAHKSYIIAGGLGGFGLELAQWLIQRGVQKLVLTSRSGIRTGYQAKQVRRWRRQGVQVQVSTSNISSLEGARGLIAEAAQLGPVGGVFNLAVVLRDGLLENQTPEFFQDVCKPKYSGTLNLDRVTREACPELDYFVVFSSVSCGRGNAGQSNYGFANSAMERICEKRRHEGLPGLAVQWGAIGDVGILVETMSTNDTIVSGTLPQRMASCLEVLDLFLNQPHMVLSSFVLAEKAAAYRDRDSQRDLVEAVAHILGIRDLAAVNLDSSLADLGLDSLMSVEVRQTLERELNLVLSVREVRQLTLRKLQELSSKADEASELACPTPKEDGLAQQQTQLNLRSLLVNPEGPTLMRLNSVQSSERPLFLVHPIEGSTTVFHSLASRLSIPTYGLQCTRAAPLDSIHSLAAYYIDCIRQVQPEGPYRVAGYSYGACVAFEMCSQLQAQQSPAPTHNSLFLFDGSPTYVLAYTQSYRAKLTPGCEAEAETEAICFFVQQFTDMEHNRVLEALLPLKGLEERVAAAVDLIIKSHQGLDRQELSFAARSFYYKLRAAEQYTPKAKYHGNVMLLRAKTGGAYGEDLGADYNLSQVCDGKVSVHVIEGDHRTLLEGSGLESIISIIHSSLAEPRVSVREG
# T1 sequence (P10145 whole entry): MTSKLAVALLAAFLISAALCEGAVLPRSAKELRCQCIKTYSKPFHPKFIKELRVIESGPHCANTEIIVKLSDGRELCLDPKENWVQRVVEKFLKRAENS
# T4 sequence (Q9P0U3 whole entry, the tested form may be a part): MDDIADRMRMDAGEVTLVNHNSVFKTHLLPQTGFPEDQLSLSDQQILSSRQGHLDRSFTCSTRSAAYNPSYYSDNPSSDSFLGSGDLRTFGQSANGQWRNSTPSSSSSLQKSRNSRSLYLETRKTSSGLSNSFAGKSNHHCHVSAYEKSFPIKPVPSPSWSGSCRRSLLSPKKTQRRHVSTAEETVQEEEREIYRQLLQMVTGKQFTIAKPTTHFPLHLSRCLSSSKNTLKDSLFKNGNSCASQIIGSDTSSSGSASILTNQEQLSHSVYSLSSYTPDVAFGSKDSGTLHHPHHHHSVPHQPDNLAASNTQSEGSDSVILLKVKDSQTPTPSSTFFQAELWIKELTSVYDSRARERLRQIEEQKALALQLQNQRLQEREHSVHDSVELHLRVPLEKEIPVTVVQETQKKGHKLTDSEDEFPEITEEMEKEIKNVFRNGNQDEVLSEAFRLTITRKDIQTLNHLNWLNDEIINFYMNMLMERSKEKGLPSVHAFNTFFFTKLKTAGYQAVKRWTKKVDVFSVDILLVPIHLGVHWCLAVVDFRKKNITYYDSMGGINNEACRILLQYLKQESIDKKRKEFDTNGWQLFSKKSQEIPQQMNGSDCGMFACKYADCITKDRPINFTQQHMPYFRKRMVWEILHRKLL
# Sequence of Mitochondrial peptide methionine sulfoxide reductase (P54149 whole entry, the tested form may be a part): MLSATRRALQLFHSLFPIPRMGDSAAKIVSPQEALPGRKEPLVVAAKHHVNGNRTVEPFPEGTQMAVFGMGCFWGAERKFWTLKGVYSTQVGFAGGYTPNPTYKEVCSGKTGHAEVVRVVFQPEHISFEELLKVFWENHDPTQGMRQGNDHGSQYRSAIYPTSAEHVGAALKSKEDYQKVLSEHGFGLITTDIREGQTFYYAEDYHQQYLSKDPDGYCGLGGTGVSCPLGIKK
# Sequence of Beta Lactamase (Q932Y6 whole entry): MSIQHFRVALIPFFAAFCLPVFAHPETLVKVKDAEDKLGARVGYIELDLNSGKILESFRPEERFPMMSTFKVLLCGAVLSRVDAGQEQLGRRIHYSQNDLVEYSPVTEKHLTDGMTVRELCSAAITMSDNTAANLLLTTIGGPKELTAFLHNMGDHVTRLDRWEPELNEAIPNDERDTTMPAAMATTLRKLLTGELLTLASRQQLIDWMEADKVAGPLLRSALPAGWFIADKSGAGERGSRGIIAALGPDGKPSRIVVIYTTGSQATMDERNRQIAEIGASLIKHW
smiles,measurement,setting,value
COc1ccccc1-c1nnc(NC(=O)c2cccc(N3C(=O)CCC3=O)c2)o1,AC50,[1],133 µM (active)
COC(=O)N1C(=O)[C@@](c2ccccc2)(C(C)C)N1C(=O)OC,IC50,Interleukin-8 [2],2.15 µM (active)
same,IC50,Interleukin-8 [3],1.82 µM (active)
NC1=NC[C@H](Cc2ccccc2)N1CCCCC1CCCCC1,EC50,[4],> 160 µM (inactive)
same,EC50,[5],2.37 µM (active)
same,CC50,[6],7.59 µM (active)
same,IC50,[7],> 20 µM (inactive)
same,IC50,cells,23.6 µM (active)
same,AC50,INS1,5.54 µM (active)
same,EC50,[8],34.7 µM (active)
CN1CCCC1CCOC(C)(c1ccccc1)c1ccc(Cl)cc1 (stereo not given),AC50,[9],10.6 µM (active)
Cc1ccc(NS(=O)(=O)c2ccc3c(c2)C(=O)c2ccccc2C3=O)c(C)c1,EC50,HEK293 [10],6.34 µM (active)
same,IC50,HEK293 [11],7.68 µM (active)
same,IC50,HEK293 [12],> 20 µM (inactive)
same,EC50,[13],> 20 µM (inactive)
same,IC50,HEK293 [14],6.68 µM (active)
same,IC50,HEK293 [15],> 20 µM (inactive)
same,EC50,[16],> 104 µM (inactive)
COc1ccc2c(c1)c1nc3ccccc3nc1n2Cc1ccc(OC(C)C)c(OC)c1,IC50,[17],24.4 µM (inactive)
same,IC50,[18],34.7 µM (inactive)
CC(C)(C)[C@H]1COC(=O)[C@H](NC(=O)OCC2c3ccccc3-c3ccccc32)C/C=C\C[C@@H](CC(=O)N[C@@H](CO)Cc2ccccc2)C(=O)N1,IC50,Protein Wnt-3a,18.6 µM (active)
NC(Cc1ccc(C(F)(F)F)cc1)c1csc(Nc2ccc(C(=O)NCc3ccco3)cn2)n1 (stereo not given),EC50,Melanocortin receptor 4,> 9.91 µM (active)
same,EC50,[19],> 7.173 µM
CC(=O)N1CCN(c2c(C)c(C)nc3cc(-c4cccc(F)c4)nn23)CC1,EC50,[20],4.22 µM (active)
same,EC50,[21],5.95 µM (inactive)
CCOC(=O)[C@]12Cc3cc(C)ccc3[C@H]1N(C1CCCCC1)C(=O)c1cc(OC)ccc12,IC50,[22],1.62 µM (active)
same,IC50,[23],4.3 µM (active)
same,IC50,Beta Lactamase,19.3 µM (inactive)
same,IC50,Fatty acid synthase [24],5.45 µM (active)
same,IC50,Fatty acid synthase [25],6.32 µM (active)
O=C(O)C(S)C(S)C(=O)O (stereo not given),IC50,Large T antigen,75.9 µM (active)
same,IC50,[26],181 µM (active)
same,IC50,[27],0.518 µM (active)
same,IC50,[28],3.22 µM (active)
same,IC50,[29],4.48 µM (active)
